Results on one substance are retold here after patent US20150268219A1, “Method for Renal Transplantation” (Universite Paris Diderot Paris 7, priority 2014, published 2015).

What all share (assay type): cell-based, C57BL/6 mice
Test [1] has as its system bone marrow-derived macrophages (BMM). The experiment in a line: Differentiation and TLR-agonist activation (CD86) of bone marrow-derived macrophages cultured with iron. The method, then:
(§1) Bone Marrow derived macrophages (BMM) were prepared from the femur and tibias of C57BL/6 mice between 6 and 8 weeks of age. Bone marrow cells were cultured for 7-8 days at 37° C. and 5% CO2 in at 2×10^6 cells/ml in RPMI 1640 medium (Invitrogen) containing 10% FBS (v/v; Biowest), penicillin/streptomycin and 15% supernatant of L929 cells (v/v) as a source of M-CSF in the presence or in the absence of FeCl3-nitrilotriacetate (FeCl3-NTA; 10-60 μM as indicated). In some conditions, lipopolysaccharide (LPS) (150 ng/ml) (Sigma-Aldrich), peptidoglycan (PGN) (15 μg/ml), Poly-IC (50 μg/ml) (all from cayla-Invivogen, Toulouse, France) were added 12 hours before BBMs analysis on day 8.
Cells suspensions were prepared from cell culture or tissue and were incubated with anti-FcγR mAb 2.4G2 to block IgG receptors before cell staining for specific surface markers. Cells (1·10^6) were then stained at 4° C. in PBS containing 1% BSA with antibodies against mouse CD11b (M1/70, BioLegend), F4/80 (BM8, eBioscience), CD86 (GL-1, BioLegend), Ly6G (1A8, BD Biosciences), Ly6C (HK1.4, BioLegend). The presence of macrophages (CD11b^+F4/80^+Ly6G^− cells) in the peritoneum was analyzed by flow cytometry.

The test system is the same in test [2]. The experiment in a line: Cytokine production in culture supernatant of BMM stimulated with LPS. The settings on record: LPS-Fe-BMM vs LPS-BMM. On the procedure:
as §1
Kidney tissues were homogenized in 300 μl of RIPA buffer supplemented with phosphatase and protease inhibitors cocktail (Sigma-Aldrich) for 30 s. Samples were cooled on ice for 30 min. Lysates were finally centrifuged at 10 000 g at 4° C. The cytokines IL-6, TNF-α, MCP-1, IL-10 and IL-12 were measured simultaneously by cytometric bead array (CBA) using mouse inflammation kit (according to the manufacturer's instruction (BD biosciences). Results were analyzed using FCAP array software. Proteins were quantified in supernatants by the bicinchoninic acid (BCA) method according to the manufacturer's instructions (Pierce). Cytokine concentrations were normalized to total protein concentration and expressed as picograms per milligram of total tissue protein.

Test [3] has the same test system. The experiment in a line: Reactive oxygen species (ROS) assessment by DCFH fluorescence. To be noted: BMM differentiated with 10 or 20 μM FeCl3-NTA for 7 days, LPS 150 ng/mL 3 hours; vs control macrophages. The method, then: as §1
Bone-marrow derived macrophages (BMM) were stimulated by LPS (150 ng/ml) to induce ROS production. After 3 hours, BMM were washed with PBS and 5 μM dichlorodihydrofluorescein-diacetate (DCFH-DA) was added and incubated for 20 min at 37° C. Cells were washed again and taken to flow cytometer to ROS analysis. FeCl3-NTA was used as mentioned before and NaOH was used as vehicle.

Test [4] has the same test system. The test can be described thus: Comparative gene-chip analysis of macrophages treated or not with soluble iron and LPS. To be noted: data not shown. On the procedure: as §1
To further investigate whether iron load could influence macrophage activation, the inventors analyzed responses to TLR agonists. […] Increased iron levels in cultures promoted macrophage unresponsiveness to LPS both when it was added at the onset of cultures from primary bone marrow progenitors (day 0) or to cultures of almost completely differentiated cells (90% CD11b+ and F4/80+BMM; day 4) (data not shown). Thus, increased extracellular iron load impairs macrophage activation. To gain insight into the molecular mechanisms involved in iron load-dependent inhibition of macrophage inflammatory responses, the inventors performed comparative gene-chip analysis of macrophages treated or not with soluble iron (Fe-NTA, 60 μM) and subjected or not to LPS treatment. Venn diagram analysis from Affymetrix® microarray chips confirmed that the overall response to LPS differed between control (BMM) and iron-treated (Fe-BMM) macrophages (data not shown). Comparison Gene Ontology (GO) analysis was further performed to test the biological relevance of genes differing between these conditions.

Setting [5] is: 60 μM, LPS-Fe-BMM compared to LPS-BMM.

For the substance FeCl3-nitrilotriacetate [Fe-NTA], the “CD86 up-regulation in response to TLR4 agonist (LPS)” value in test [1] (BMM cultured with 20 or 60 μM iron, LPS 150 ng/mL overnight) is recorded as “not able to up-regulate CD86”. Moreover, in test [1] (BMM cultured with 20 or 60 μM iron, PGN overnight), the “CD86 up-regulation in response to TLR2 agonist (PGN)” value is on record as “not able to up-regulate CD86”. Besides, the “CD86 up-regulation in response to TLR3 agonist (poly I:C)” value in test [1] (BMM cultured with 20 or 60 μM iron, poly-IC overnight) is reported as “not able to up-regulate CD86”. In test [1] (BMM differentiated with 20 μM and 60 μM, data not shown), the “macrophage differentiation (cell morphology, CD11b and F4/80 expression)” value is “not affected”. Besides, in test [2], the “secretion of IL-6” value was “impaired secretion”, the “secretion of MCP-1” value is recorded as “impaired secretion” and the “secretion of TNF-α” value is “impaired secretion”. Further, the “ROS responses to LPS stimulation” value in test [3] is listed as “impaired”. In addition, in test [4] (setting [5]), the “genes implicated in inflammatory response” value is recorded as “downregulated” and the “genes involved in NF-κB responses” value was “down-regulated”. Further, the “expression of genes involved in anti-oxidant responses” value in test [4] (Fe-BMM compared to control cells) was “Increased expression”. In addition, the “expression of genes characterizing M1 or M2 phenotypes” value in test [4] (increased extracellular iron levels) is “inhibited”.
